We go through 12 compounds from patent publication US4767764A, “Alkoxyalkyl and alkylmercaptoalkyl substituted bridged benzofuroisoquinolines having opioid antagonist and/or appetite-controlling properties” (E. I. Du Pont de Nemours and Company, priority 1986, dated 1988).

For assay [1], the target named is T1, mu opioid receptor (morphine analgesia) (Mus musculus, UniProt P42866).
T1 construct: Male CF1 mice (fasted 17-21 hours); from tissue; host or cells: live male CF1 mice (in vivo, whole animal; endogenous receptor)
As to the kind of experiment: antagonism of morphine analgesia in PQW test (mu antagonist potency). Type of assay: in vivo, mouse (male CF1). As to conditions: sc, read-out: ED50, antagonism of morphine analgesia in PQW test (mu antagonist potency).

Assay [2] has as its target T2, kappa opioid receptor (U-50,488H analgesia) (Mus musculus, UniProt P33534).
T2 construct: Male CF1 mice (fasted 17-21 hours); from tissue; host or cells: live male CF1 mice (in vivo, whole animal; endogenous receptor)
As to the kind of experiment: in vivo. As to conditions: sc, read-out: ED50, antagonism of U-50,488H analgesia in PQW test (kappa antagonist potency). Set-up: species or system mouse (male CF1).

Assay [3] relates to PQ-induced writhing in mice. As to the kind of experiment: animal or person. It is filed as in vivo, mouse (male CF1). As to conditions: Mus musculus, sc, read-out: ED50, antagonism of PQ-induced writhing in mice.
The test system of assay [4] is kappa receptor. The note with it: cited from earlier work.
Assay [5] relates to spinal cord injury. The note with it: rabbit, versus WIN 44,441-3; cited from earlier work.
For assay [6], the system named is animal models of hemorrhagic, septic, and neurogenic shock. As to conditions: in vivo; cited from earlier work.
The test system of assay [7] is food intake. The note with it: in vivo; cited from earlier work.
Assay [8] relates to feeding. As to conditions: in vivo; cited from earlier work.
Assay [9] relates to μ (mu), κ (kappa) and δ (delta) opioid receptors. As to conditions: established opioid antagonists; cited from earlier work.

T1 sequence (P42866 whole entry): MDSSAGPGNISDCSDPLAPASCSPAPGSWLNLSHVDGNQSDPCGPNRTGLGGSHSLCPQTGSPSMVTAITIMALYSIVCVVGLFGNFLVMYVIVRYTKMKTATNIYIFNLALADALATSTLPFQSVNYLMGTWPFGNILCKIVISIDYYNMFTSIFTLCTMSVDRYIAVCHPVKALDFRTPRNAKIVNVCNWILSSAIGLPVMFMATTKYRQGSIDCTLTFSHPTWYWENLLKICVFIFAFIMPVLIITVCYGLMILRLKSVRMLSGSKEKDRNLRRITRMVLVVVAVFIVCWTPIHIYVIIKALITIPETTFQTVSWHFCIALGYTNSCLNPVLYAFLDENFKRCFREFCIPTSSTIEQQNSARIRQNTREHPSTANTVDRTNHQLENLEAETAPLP
T2 sequence (P33534 whole entry): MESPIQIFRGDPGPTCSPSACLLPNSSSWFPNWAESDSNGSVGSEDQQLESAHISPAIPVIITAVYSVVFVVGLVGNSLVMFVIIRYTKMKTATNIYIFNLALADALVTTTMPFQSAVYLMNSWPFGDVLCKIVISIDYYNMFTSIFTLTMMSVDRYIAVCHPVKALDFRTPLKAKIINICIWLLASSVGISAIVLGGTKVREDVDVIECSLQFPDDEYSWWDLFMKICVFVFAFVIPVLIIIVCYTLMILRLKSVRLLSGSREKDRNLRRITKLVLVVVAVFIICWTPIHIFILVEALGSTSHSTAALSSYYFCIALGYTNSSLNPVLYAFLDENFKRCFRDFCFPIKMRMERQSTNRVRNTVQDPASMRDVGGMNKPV

With `CCCN1CCC23c4cccc(O)c4OC2C2CCC3(C1)C(COC)C2` (stereo not drawn) [Example 1, 5-Methoxymethyl-3-n-propyl-1,2,3,4,5,6,7,7a-octahydro-4a,7-ethanobenzofuro[3,2-e]isoquinolin-9-ol], the figures for the ED50 in assay [1], in assay [2] and in assay [3] were 0.014 mg/kg, 0.004 mg/kg and over 81 mg/kg, respectively.

For `Oc1cccc2c1OC1C3CCC4(CN(CC5CC5)CCC214)C(COCCCc1ccccc1)C3` (stereo not drawn) [Example 7, 3-cyclopropylmethyl-5-(3-phenyl-n-propoxymethyl)-1,2,3,4,5,6,7,7a-octahydro-4a,7-ethanolbenzofuro[3,2-e]isoquinolin-9-ol], the figures for the ED50 in assay [1], in assay [2] and in assay [3] were 0.29 mg/kg, 0.24 mg/kg and over 81 mg/kg, respectively.

With `CCC1C2Cc3ccc(O)cc3C1(CC)CCN2Cc1ccoc1` (stereo not drawn) [MR 2266, reference compound], the results for the ED50 in assay [1], in [2] and in assay [3] were 0.109 mg/kg, 0.115 mg/kg and over 81 mg/kg, respectively.

For `CN1CC[C@]2(C)c3cc(O)ccc3C[C@H]1C2(C)CCC(=O)CCC1CCCC1.CS(=O)(=O)O` (stereo partly drawn) [WIN 44,441-3], in assay [4], the “kappa receptor activity/selectivity in words” value is listed as “enhanced activity at the kappa receptor”.

As to `C=CCN1CC[C@]23c4c5ccc(O)c4O[C@H]2C(=O)CC[C@@]3(O)[C@H]1C5` [Naloxone, naloxone], the “effectiveness in spinal stroke model” value in assay [5] is given as “less effective than WIN 44,441-3”. In addition, in assay [6], the “effective doses in shock models versus mu mediated effects” value is recorded as “several orders of magnitude higher than doses useful in reversing mu mediated effects”; the “improvement of hemodynamic parameters in shock models” value was “improve hemodynamic parameters in a variety of animal models of hemorrhagic, septic, and neurogenic shock”. Moreover, the median effective dose (ED50) in assay [3] is over 81 mg/kg. In assay [7], the “decrease of food intake” value is recorded as “decrease food intake in several animal species” and the “effective doses for food intake versus mu mediated effects” value is listed as “much larger than those useful in reversing mu mediated effects”.

On to `CC[C@]12CCN(CC3CC3)[C@H](C(=O)c3ccc(O)cc31)[C@@H]2C` [ethylketocyclazocine], for which the stimulation of feeding result in assay [8] was “more potent stimulators of feeding than the mu agonist morphine”.

For the compound `CCCN1CCC23c4cccc(O)c4OC2C2CCC3(C1)C(CSC)C2` (stereo not drawn) [Example 5, 5-methylthiomethyl-3-n-propyl-1,2,3,4,5,6,7,7a-octahydro-4a,7-ethanobenzofuro[3,2-e]isoquinolin-9-ol], the ED50 in assay [1] is 0.1 mg/kg; in assay [2] it was 0.063 mg/kg; in [3] it was over 81 mg/kg.

Regarding `CCCN1CCC23c4cccc(O)c4OC2C2CCC3(C1)C(COCC)C2` (stereo not drawn) [Example 2, 5-Ethoxymethyl-3-n-propyl-1,2,3,4,5,6,7,7a-octahydro-4a,7-ethanobenzofuro[3,2-e]isoquinolin-9-ol], the figures for the ED50 in assay [1], in assay [2] and in assay [3] were 0.024 mg/kg, 0.012 mg/kg and over 81 mg/kg, respectively.

Consider `CCCOCC1CC2C=CC13CN(CCC)CCC31c3cccc(O)c3OC21` (stereo not drawn) [Example 4, 5-(n-propoxymethyl)-3-n-propyl-1,2,3,4,5,6,7,7a-octahydro-4a,7-ethenobenzofuro[3,2-e]isoquinolin-9-ol], for which the median effective dose (ED50) is 0.19 mg/kg in [1], 0.05 mg/kg in [2] and over 81 mg/kg in assay [3].

For `COCC1CC2CCC13CN(CC1CC1)CCC31c3cccc(O)c3OC21` (stereo not drawn) [Example 6, 3-Cyclopropylmethyl-5-methoxymethyl-1,2,3,4,5,6,7,7a-octahydro-4a,7-ethanobenzofuro[3,2-e]isoquinolin-9-ol], the median effective dose (ED50) is 0.008 mg/kg in assay [1], 0.007 mg/kg in assay [2] and over 81 mg/kg in assay [3].

Take `CCCOCC1CC2CCC13CN(CCC)CCC31c3cccc(O)c3OC21` (stereo not drawn) [Example 3, 5-(n-Propoxymethyl)-3-n-propyl-1,2,3,4,5,6,7,7a-octahydro-4a,7-ethanobenzofuro[3,2-e]isoquinolin-9-ol]: the median effective dose (ED50) in assay [1] is 0.06 mg/kg; in assay [2], 0.025 mg/kg; in [3] it was over 81 mg/kg.

In the case of `O=C1CC[C@@]2(O)[C@H]3Cc4ccc(O)c5c4[C@@]2(CCN3CC2CC2)[C@H]1O5` [Naltrexone, naltrexone], in [9], the “opioid receptor binding in words” value was “bind to all three types of receptors, with greatest affinity for the mu receptor”. Further, the ED50 in assay [3] is over 81 mg/kg. In [7], the “decrease of food intake” value was “decrease food intake in several animal species” and the “effective doses for food intake versus mu mediated effects” value is “much larger than those useful in reversing mu mediated effects”.
